Experiment [1] concerns the target T1, Gr5a (Drosophila melanogaster, UniProt Q9W497).
T1 construct: After cloning Gr5a cDNA into a pAC vector; expressed in transfected cells
T1 sequence (Q9W497 1-444): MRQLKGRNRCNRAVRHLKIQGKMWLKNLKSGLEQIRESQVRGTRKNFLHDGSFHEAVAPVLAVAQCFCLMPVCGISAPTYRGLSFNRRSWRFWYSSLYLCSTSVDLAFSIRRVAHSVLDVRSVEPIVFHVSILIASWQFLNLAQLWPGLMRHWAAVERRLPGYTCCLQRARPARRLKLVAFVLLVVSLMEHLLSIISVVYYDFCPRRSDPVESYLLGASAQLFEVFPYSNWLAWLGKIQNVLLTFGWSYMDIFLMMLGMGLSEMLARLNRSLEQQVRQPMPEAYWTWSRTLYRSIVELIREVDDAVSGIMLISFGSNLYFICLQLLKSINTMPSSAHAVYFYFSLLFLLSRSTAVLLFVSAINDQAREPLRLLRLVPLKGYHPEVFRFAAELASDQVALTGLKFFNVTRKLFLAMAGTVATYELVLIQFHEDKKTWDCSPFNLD
Briefly: Voltage change of ISFET biosensor (sensing unit) with fixed drosophila cell line expressing Gr5a. The experiment is classed as cell-based. As to conditions: FIG. 9. As for the experimental part: A cell line expressing Gr5a, which is one of drosophila gustatory receptors, was established with Drosophila Expression System (Invitrogen) using Drosophila Schneider 2 (S2) cells that cannot detect sugar (http://tools.invitrogen.com/content/sfs/manuals/des_man.pdf). After cloning Gr5a cDNA into a pAC vector, the S2 cell line was co-transfected with 2 μg of the cloned plasmid and 200 ng of pCoHygro which is a selection vector resistant to hygromycin, using polyethylenimine (PEI) in a Schneider medium (Invitrogen) containing no serum. A stable cell line expressing Gr5a was established by culturing in a medium containing hygromycin every 4 days, at least 6 times. A high concentration of a polycrystalline silicon thin film was deposited on a p-type silicon substrate through a low pressure chemical vapor deposition (LPCVD) vacuum equipment, and a source electrode and a drain electrode were formed spaced away from each other using lithographic and dry etching processes. An oxide layer was formed of a silicon dioxide (SiO2) layer, a hafnium oxide (HfO2) layer located on the silicon dioxide layer, and an aluminum oxide (Al2O3) layer located on the hafnium oxide layer, on the silicon layer. Rapid thermal treatment (at 850° C. for 30 seconds) was conducted under N2/O2 gas atmosphere, in order to activate the source electrode, the drain electrode, and the oxide layer, successively. […]

Experiment [2] deals with S2 cells. The experiment in a line: Voltage change of ISFET biosensor (reference unit) with fixed S2 cells or general culture media. In kind it is cell-based, Drosophila. The note with it: FIG. 9. An excerpt:
A cell line expressing Gr5a, which is one of drosophila gustatory receptors, was established with Drosophila Expression System (Invitrogen) using Drosophila Schneider 2 (S2) cells that cannot detect sugar (http://tools.invitrogen.com/content/sfs/manuals/des_man.pdf). A high concentration of a polycrystalline silicon thin film was deposited on a p-type silicon substrate through a low pressure chemical vapor deposition (LPCVD) vacuum equipment, and a source electrode and a drain electrode were formed spaced away from each other using lithographic and dry etching processes. An oxide layer was formed of a silicon dioxide (SiO2) layer, a hafnium oxide (HfO2) layer located on the silicon dioxide layer, and an aluminum oxide (Al2O3) layer located on the hafnium oxide layer, on the silicon layer. Rapid thermal treatment (at 850° C. for 30 seconds) was conducted under N2/O2 gas atmosphere, in order to activate the source electrode, the drain electrode, and the oxide layer, successively. After the rapid thermal treatment, a metal electrode was deposited by e-beam deposition. Thereafter, a wall structure was constructed with polydimethylsiloxane (PDMS), and an electrolyte was put into the wall structure, to prepare an ISFET based biosensor. A pair ISFET structure was developed capable of sensing by distinguishing the experimental group from the control group, as shown in FIG. 8. […]

Regarding `OC[C@H]1O[C@H](O[C@H]2O[C@H](CO)[C@@H](O)[C@H](O)[C@H]2O)[C@H](O)[C@@H](O)[C@@H]1O` [trehalose], the “change in voltage of the pair ISFET depending on the concentration of trehalose” value in experiment [1] was “voltage remarkably increases”; in experiment [2], “voltage changes little”.

(Values after patent US20160139152A1, “Biosensor Using Cell That Expresses Chemosensory Receptor That Can Detect Sugar, And Alzheimer's Disease Diagnostic Apparatus Comprising Same” (KYUNGPOOK NATIONAL UNIVERSITY INDUSTRY-ACADEMIC COOPERATION …, priority 2013, published 2016).)
